Earlier results in patent US7682606B2, “Methods of producing edible fungi containing activated folates and nutritional supplements containing activated folates” (Jarrow Formulas, Inc., priority 2003, dated 2010).

Columns and labels:
homocysteine = conditions: human
[1] = animal

| SMILES | Reducing homocysteine, compared with racemic D,L mixtures (homocysteine) | Intestinal absorption after oral administration [1] |
| --- | --- | --- |
| CN1c2c(nc(N)[nH]c2=O)NCC1CNc1ccc(C(=O)N[C@@H](CCC(=O)O)C(=O)O)cc1 (single isomer, unassigned) [L-isomer of 5-MTHF, 5-methyltetrahydrofolate] | superior to racemic mixtures |  |
| CN1c2c(nc(N)[nH]c2=O)NCC1CNc1ccc(C(=O)N[C@@H](CCC(=O)O)C(=O)O)cc1 (some centres unmarked) [5-MTHF, 5-methyltetrahydrofolate] |  | readily absorbed from the intestinal tract without degradation |
